Measurements published in patent US8063090B2, “Mineralocorticoid receptor modulators” (Merck Sharp & Dohme Corp., priority 2007, dated 2011).
pKi: −log10 of the molar value.

Molecular target: T1, recombinant rhesus mineralocorticoid receptor (Macaca mulatta, UniProt A0A5F8ATS5)
T1 construct: made in house; host or cells: insect cells infected with recombinant baculovirus; clarified cell lysate used
T1 sequence (A0A5F8ATS5 1-984): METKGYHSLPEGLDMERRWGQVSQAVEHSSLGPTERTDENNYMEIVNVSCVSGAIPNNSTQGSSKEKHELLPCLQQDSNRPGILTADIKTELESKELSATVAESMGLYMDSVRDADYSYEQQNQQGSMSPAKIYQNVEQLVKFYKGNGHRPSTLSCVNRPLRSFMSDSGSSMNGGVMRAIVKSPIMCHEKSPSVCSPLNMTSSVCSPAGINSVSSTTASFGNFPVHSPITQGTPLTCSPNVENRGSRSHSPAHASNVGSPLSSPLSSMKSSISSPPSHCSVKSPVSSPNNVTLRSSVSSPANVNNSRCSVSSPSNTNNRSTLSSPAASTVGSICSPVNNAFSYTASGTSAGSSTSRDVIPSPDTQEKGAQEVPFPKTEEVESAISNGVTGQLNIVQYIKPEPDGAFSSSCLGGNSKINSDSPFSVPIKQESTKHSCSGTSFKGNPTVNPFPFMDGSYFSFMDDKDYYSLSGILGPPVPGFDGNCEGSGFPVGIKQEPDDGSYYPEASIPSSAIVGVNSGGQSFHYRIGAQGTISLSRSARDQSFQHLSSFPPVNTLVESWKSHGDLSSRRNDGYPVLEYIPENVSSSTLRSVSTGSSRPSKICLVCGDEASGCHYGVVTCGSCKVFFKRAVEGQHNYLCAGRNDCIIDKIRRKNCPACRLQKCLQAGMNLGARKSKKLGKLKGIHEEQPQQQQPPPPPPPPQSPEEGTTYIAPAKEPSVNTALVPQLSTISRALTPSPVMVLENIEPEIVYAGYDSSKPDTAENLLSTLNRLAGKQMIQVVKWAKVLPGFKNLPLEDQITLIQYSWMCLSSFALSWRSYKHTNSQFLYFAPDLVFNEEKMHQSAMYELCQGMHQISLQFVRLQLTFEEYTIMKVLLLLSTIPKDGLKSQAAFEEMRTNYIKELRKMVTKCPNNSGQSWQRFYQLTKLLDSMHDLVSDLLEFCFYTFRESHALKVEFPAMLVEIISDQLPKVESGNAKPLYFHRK
Experiment: Mineralocorticoid receptor radioligand ([3H]-aldosterone) filter binding assay
Details: displacement of [3H]-aldosterone, insect cell lysate, 20° C., read-out: Mineralocorticoid receptor binding affinity Ki
Description: Measurement of Mineralocorticoid Receptor Binding Affinity
The binding affinity of compounds for the mineralocorticoid receptor was determined by measuring their ability to prevent binding of radiolabeled aldosterone to recombinant rhesus mineralocorticoid receptor in a traditional filter binding assay protocol.
Rhesus mineralocorticoid receptor cDNA was cloned from a cDNA library using and used to prepare a recombinant baculovirus encoding the rhesus mineralocorticoid receptor coding sequence by standard molecular biological and cell biological methods. […] Cells were collected and lysed. The lysates were clarified by centrifugation and stored at −80 C until use in the radioligand binding assay.
The assays were carried out in 20 mM Hepes, 10 mM Na2MoO4, 10 mM 2-mercaptoethanol, 157 mM sucrose, and 3.7 mM CHAPS. [^3H]-Aldosterone (1 mCi/ml, 70-100 Ci/mmol) was purchased from Perkin Elmer (NET419). Test compounds were dissolved in DMSO and diluted in DMSO to 50 times the desired final concentrations for 3-fold serial dilution dose response curves. A working stock solution of [^3H]-aldosterone was prepared by dilution of the commercial stock to 0.083 μM in assay buffer. The insect cell lysate containing rhesus mineralocorticoid receptor was thawed and diluted to 0.7 mg protein/mL. Assay were started by combining 20 μL of test compound solution, 920 μL of diluted insect cell lysate, and 60 μL of [^3H]-aldosterone working solution in 2-mL 96-well polypropylene square well plates (USA Scientific) at 20° C. The mixture was incubated for 3 hr with continuous agitation on a platform shaker. The mixture was then filtered through 96-well GF/B filter plates (Packard) that had been previously treated with a solution of polyethylenimine (Sigma, P-3143). The filter plate was washed 3 times with 0.5 mL of 50 mM Tris-HCl, pH 7.4 and then dried overnight at 37° C. in a vacuum oven. The bottom of the plate was sealed and 40 μL of Microscint-20 (Packard, 6013621) was added to each well before counting radioactivity with a Topcount plate reader. Non-specific radioligand binding was determined by adding non-radiolabeled aldosterone (0.5 mM in DMSO) to the assay mixture to a final concentration of 10 μM in place of test compound. IC50 and Ki values were determined using a four parameter logistic fit using a customized assay data analyzer software package.

In order of falling pKi:
1. Cc1cccc(Cn2ccnc2C(c2ccccc2)c2ccccc2)c1 [Compound 1-13, 2-(diphenylmethyl)-1-(3-methylbenzyl)-1H-imidazole]  6.87
2. O=C(Nc1cccc(Cn2ccnc2C(c2ccccc2)c2ccccc2)c1)c1cc(Cl)cc(Cl)c1 [Compound 1-20, 3,5-dichloro-N-(3-{[2-(diphenylmethyl)-1H-imidazol-1-yl]methyl}phenyl)benzamide]  6.79
3. Ic1cccc(Cn2ccnc2C(c2ccccc2)c2ccccc2)c1 [Compound 1-12, 2-(diphenylmethyl)-1-(3-iodobenzyl)-1H-imidazole]  6.54
4. CC(c1cc(Cl)cc(Cl)c1)n1ccnc1C(c1ccccc1)c1ccccc1 (stereo not shown) [Compound 1-16, 1-[1-(3,5-dichlorophenyl)ethyl]-2-(diphenylmethyl)-1H-imidazole]  6.53
5. COc1cc(OC)cc(C(=O)Nc2cccc(Cn3ccnc3C(c3ccccc3)c3ccccc3)c2)c1 [Compound 1-19, N-(3-{[2-(diphenylmethyl)-1H-imidazol-1-yl]methyl}phenyl)-3,5-dimethoxybenzamide]  6.52
6. FC(F)(F)c1cccc(Cn2ccnc2C(c2ccccc2)c2ccccc2)c1 [Compound 1-8, 2-(diphenylmethyl)-1-[3-(trifluoromethyl)benzyl]-1H-imidazole]  6.39
7. COc1ccc(Br)cc1Cn1ccnc1C(c1ccccc1)c1ccccc1 [Compound 1-17, 1-(5-bromo-2-methoxybenzyl)-2-(diphenylmethyl)-1H-imidazole]  6.30
8. O=[N+]([O-])c1cccc(Cn2ccnc2C(c2ccccc2)c2ccccc2)c1 [Compound 1-14, 2-(diphenylmethyl)-1-(3-nitrobenzyl)-1H-imidazole]  6.23
9. Nc1cccc(Cn2ccnc2C(c2ccccc2)c2ccccc2)c1 [Compound 1-15, 3-{[2-(diphenylmethyl)-1H-imidazol-1-yl]methyl}aniline]  6.20
10. c1ccc(Cn2c(C(c3ccccc3)c3ccccc3)nc3ccccc32)cc1 [Compound 2-3, 1-benzyl-2-(diphenylmethyl)-1H-benzimidazole]  6.02
11. CC(c1cc(C(F)(F)F)cc(C(F)(F)F)c1)n1ccnc1C(c1ccccc1)c1ccccc1 (stereo not shown) [Compound 1-10, 1-{1-[3,5-bis(trifluoromethyl)phenyl]ethyl}-2-(diphenylmethyl)-1H-imidazole]  5.96
12. Clc1cc2c(cc1Cn1ccnc1C(c1ccccc1)c1ccccc1)OCO2 [Compound 1-18, 1-[(6-chloro-1,3-benzodioxol-5-yl)methyl]-2-(diphenylmethyl)-1H-imidazole]  5.95
13. FC(F)(F)c1cc(Cn2ccnc2C(c2ccccc2)c2ccccc2)cc(C(F)(F)F)c1 [Compound 1-11, 1-[3,5-bis(trifluoromethyl)benzyl]-2-(diphenylmethyl)-1H-imidazole]  5.87
14. CC(c1ccccc1)n1c(C(c2ccccc2)c2ccccc2)nc2ccccc21 (stereo not shown) [Compound 2-4, 2-(diphenylmethyl)-1-(1-phenylethyl)-1H-benzimidazole]  5.68
15. CC(c1cccc(I)c1)n1ccnc1C(c1ccccc1)c1ccccc1 (stereo not shown) [Compound 1-6, 2-(diphenylmethyl)-1-[1-(3-iodophenyl)ethyl]-1H-imidazole]  5.58
16. COc1ccc(Cn2ccnc2C(c2ccccc2)c2ccccc2)cc1 [Compound 1-7, 2-(diphenylmethyl)-1-(4-methoxybenzyl)-1H-imidazole]  5.58
17. CC(c1ccccc1)n1ccnc1C(c1ccccc1)c1ccccc1 (racemic) [Compound 1-5, 2-(diphenylmethyl)-1-(1-phenylethyl)-1H-imidazole]  5.54

Test system: not given
Experiment: not given
Details: in combination with standard CHF therapy, patients suffering from advanced CHF; cited from earlier work

In the case of `CC(=O)S[C@@H]1CC2=CC(=O)CC[C@]2(C)[C@H]2CC[C@@]3(C)[C@@H](CC[C@@]34CCC(=O)O4)[C@H]12` [spironolactone], the “reduced cardiac related mortality” value is listed as 30%.

In the case of `CC(=O)S[C@@H]1CC2=CC(=O)CC[C@]2(C)[C@H]2CC[C@@]3(C)[C@@H](CC[C@@]34CCC(=O)O4)[C@H]12` [spironolactone], the “reduced frequency of hospitalization” value is given as 33%.
